From ChEMBL document CHEMBL1201862, “PubChem BioAssay data set” (2004)
Several values for one entry are separate records, joined by “and”; a condition that tells them apart may be missing. Equal entries are not always repeated. Activity calls are given as the source filed them.

Legend:
[1] = target: ORF 73 (Human herpesvirus 8, UniProt O40947); assay: inhibitors of C-LANA binding to LBS DNA, dose response, biochemical, fluorescence polarization, cherry-picked samples (AID 504725); parameters: species or system Human gammaherpesvirus 8;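 further: fluorescence polarization of a labeled DNA duplex reporting LANA DNA binding; potency is for inhibitors that block LANA binding to the DNA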
[2] = target: T1, Aminopeptidase N (Plasmodium falciparum FcB1/Columbia, UniProt O96935); assay: P. falciparum M1AAP inhibitors, biochemical, fluorogenic H-Leu-NHMec substrate, 1536-well (AID 1445); parameters: species or system Plasmodium falciparum 3D7, 3D7
T1 sequence (O96935 whole entry): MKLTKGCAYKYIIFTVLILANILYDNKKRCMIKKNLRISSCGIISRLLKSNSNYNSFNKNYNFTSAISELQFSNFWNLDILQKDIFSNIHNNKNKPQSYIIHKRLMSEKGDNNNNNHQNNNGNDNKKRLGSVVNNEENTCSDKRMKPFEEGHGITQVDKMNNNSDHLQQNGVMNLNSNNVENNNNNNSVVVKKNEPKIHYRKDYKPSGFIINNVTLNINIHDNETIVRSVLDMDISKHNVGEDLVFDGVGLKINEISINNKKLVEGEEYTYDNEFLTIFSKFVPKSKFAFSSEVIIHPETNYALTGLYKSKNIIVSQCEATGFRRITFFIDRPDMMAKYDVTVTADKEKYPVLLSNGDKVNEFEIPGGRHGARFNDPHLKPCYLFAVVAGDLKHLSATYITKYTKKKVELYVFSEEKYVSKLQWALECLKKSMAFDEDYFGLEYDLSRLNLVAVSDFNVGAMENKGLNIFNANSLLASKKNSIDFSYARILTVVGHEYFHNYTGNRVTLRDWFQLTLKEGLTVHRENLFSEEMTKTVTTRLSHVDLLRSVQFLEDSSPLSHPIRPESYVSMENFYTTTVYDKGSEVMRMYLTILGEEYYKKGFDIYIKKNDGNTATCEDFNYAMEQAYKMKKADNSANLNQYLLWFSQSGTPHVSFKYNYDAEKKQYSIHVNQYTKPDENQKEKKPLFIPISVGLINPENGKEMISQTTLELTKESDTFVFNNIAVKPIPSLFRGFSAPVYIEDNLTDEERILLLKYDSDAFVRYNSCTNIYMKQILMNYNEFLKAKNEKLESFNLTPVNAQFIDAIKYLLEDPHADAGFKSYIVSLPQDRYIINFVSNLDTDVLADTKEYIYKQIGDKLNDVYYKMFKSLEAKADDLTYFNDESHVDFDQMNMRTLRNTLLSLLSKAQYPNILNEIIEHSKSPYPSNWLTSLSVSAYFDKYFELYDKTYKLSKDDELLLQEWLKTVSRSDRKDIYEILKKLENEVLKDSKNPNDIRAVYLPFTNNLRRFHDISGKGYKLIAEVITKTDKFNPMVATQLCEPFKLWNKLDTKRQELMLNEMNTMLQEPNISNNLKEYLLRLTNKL

[3] = target: T2, Zinc finger protein mex-5 (Caenorhabditis elegans, UniProt Q9XUB2); assay: MEX-5/TCR-2 RNA interaction inhibitors, dose response, biochemical, C. elegans, fluorescence polarization (AID 1960)
T2 sequence (Q9XUB2 whole entry): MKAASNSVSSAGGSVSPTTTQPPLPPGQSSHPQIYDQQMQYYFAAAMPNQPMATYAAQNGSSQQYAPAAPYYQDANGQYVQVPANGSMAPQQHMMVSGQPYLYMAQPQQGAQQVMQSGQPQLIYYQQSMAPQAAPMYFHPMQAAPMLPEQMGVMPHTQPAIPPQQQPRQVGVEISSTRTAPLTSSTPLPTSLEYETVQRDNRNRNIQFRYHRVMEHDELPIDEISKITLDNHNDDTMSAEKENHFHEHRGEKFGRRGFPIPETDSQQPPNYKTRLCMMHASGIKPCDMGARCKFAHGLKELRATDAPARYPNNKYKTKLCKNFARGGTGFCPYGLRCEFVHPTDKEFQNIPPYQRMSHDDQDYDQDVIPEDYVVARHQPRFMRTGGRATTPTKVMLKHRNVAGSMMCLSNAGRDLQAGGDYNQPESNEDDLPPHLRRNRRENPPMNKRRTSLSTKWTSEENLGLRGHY

[4] = target: T3, RNA-binding protein pos-1 (Caenorhabditis elegans, UniProt G5EF15); assay: inhibitors of POS-1/mex-3 RNA binding, dose response, biochemical, fluorescence polarization (AID 1964);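 further: purified POS-1 fused to maltose binding protein made in E. coli; potency of compounds blocking POS-1 binding to fluorescent RNA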
T3 sequence (G5EF15 whole entry): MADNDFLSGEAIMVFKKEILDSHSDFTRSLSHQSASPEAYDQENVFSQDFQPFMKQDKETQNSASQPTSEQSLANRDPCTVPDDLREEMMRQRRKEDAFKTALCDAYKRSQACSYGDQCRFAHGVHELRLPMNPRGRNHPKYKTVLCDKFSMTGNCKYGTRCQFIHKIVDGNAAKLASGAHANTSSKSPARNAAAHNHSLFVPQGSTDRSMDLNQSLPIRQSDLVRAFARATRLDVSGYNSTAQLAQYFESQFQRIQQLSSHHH

[5] = cells; format: functional
[6] = tested on: Salmon testes DNA; assay: DNA intercalators displacing acridine orange, dose response, artefact control for KSHV LANA DNA-binding inhibitor project, biochemical, fluorescence polarization, cherry-picked samples, set 2 (AID 504727); parameters: species or system Salmonidae
[7] = tested on: HeLa; assay: HeLa cell cytotoxicity, dose response, cytotoxicity control, 24 h, cherry-picked samples (AID 504726); format: functional, cell-based; conditions: Homo sapiens;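 further: potency for cytotoxicity as loss of luminescence signal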
[8] = target: T4, Alkaline phosphatase, tissue-nonspecific isozyme (Homo sapiens, UniProt P05186)
T4 sequence (P05186 whole entry): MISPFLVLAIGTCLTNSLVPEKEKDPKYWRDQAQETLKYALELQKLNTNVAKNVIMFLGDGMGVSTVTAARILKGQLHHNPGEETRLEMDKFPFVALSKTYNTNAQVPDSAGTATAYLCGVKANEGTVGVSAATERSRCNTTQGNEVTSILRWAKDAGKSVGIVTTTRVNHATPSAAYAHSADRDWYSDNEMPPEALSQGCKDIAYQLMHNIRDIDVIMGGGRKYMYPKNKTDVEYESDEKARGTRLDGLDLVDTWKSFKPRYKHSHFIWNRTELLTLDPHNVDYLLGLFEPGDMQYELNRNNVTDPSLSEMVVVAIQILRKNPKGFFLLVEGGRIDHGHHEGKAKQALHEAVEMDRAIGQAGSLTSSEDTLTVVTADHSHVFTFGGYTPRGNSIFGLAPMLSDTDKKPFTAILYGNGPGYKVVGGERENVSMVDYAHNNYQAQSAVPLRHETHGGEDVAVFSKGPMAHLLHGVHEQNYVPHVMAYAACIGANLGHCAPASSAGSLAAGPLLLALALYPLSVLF

[9] = target: T5, Voltage-gated N-type calcium channel alpha-1B subunit/Amyloid beta A4 precursor protein-binding family A member 1 (Homo sapiens, UniProt Q00975+Q02410); assay: disruptors of Mint-PDZ/N-type channel peptide interaction – biochemical, HTRF, SAR follow-up (AID 2489); format: functional
T5 sequence (Q00975 whole entry): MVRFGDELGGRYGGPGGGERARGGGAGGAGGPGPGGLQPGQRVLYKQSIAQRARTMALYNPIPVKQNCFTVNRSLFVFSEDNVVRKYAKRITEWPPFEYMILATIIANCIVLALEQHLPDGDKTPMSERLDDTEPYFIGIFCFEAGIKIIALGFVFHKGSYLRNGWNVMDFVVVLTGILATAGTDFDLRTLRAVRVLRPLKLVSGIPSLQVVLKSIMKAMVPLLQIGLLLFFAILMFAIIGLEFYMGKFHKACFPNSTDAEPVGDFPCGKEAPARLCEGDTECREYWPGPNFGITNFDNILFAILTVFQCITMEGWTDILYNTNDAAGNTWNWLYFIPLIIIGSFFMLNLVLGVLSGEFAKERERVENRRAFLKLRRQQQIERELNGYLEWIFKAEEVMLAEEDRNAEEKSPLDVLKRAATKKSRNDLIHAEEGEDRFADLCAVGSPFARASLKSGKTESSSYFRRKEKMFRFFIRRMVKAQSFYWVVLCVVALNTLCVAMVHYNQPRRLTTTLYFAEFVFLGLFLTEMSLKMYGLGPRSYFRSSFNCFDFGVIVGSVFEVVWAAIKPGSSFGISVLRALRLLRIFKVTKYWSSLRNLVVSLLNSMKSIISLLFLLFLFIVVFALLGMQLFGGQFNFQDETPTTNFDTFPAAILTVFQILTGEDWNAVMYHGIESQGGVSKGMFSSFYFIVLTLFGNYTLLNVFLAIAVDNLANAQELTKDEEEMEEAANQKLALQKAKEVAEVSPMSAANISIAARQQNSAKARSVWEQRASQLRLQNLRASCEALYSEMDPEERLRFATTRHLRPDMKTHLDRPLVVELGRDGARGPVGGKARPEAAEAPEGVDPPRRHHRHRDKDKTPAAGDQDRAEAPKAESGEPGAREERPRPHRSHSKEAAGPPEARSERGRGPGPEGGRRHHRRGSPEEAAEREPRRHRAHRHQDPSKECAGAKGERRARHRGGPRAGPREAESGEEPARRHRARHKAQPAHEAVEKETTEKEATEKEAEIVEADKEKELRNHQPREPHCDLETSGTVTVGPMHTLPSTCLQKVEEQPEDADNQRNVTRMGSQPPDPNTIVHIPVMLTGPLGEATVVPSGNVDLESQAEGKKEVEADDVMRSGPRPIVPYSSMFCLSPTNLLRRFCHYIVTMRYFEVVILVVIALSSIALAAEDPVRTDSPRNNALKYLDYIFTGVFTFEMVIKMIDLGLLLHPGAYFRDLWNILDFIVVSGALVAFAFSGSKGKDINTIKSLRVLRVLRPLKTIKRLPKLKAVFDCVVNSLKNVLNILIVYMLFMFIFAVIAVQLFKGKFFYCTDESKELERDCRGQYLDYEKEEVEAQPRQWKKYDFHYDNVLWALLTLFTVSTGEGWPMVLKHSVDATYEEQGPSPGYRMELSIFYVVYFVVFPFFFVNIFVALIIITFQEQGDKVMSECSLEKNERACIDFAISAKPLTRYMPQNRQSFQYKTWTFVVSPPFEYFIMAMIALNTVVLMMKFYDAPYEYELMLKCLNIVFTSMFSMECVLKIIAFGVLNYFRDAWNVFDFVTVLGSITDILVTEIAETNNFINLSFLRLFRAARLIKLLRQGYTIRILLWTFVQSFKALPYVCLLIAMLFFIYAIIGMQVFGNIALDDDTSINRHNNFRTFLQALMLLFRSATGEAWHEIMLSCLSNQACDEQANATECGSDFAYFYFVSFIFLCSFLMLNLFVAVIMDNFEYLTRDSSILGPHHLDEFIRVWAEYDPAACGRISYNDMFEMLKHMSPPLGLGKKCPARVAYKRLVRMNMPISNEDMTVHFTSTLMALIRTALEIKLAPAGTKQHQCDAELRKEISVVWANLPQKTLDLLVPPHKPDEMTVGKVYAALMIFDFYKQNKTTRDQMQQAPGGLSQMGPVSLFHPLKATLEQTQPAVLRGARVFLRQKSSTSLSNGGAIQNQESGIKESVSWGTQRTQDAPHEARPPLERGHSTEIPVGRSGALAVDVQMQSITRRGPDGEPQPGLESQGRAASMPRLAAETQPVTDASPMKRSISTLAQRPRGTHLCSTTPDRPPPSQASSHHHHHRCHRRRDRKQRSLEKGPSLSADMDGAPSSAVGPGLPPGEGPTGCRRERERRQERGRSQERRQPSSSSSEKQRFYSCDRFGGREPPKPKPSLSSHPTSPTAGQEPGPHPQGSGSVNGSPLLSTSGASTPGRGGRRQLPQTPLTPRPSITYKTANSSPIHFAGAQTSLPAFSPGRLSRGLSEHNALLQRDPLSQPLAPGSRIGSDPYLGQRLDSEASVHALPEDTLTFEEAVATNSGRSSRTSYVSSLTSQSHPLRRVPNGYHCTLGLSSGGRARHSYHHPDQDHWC
T5 sequence (Q02410 whole entry): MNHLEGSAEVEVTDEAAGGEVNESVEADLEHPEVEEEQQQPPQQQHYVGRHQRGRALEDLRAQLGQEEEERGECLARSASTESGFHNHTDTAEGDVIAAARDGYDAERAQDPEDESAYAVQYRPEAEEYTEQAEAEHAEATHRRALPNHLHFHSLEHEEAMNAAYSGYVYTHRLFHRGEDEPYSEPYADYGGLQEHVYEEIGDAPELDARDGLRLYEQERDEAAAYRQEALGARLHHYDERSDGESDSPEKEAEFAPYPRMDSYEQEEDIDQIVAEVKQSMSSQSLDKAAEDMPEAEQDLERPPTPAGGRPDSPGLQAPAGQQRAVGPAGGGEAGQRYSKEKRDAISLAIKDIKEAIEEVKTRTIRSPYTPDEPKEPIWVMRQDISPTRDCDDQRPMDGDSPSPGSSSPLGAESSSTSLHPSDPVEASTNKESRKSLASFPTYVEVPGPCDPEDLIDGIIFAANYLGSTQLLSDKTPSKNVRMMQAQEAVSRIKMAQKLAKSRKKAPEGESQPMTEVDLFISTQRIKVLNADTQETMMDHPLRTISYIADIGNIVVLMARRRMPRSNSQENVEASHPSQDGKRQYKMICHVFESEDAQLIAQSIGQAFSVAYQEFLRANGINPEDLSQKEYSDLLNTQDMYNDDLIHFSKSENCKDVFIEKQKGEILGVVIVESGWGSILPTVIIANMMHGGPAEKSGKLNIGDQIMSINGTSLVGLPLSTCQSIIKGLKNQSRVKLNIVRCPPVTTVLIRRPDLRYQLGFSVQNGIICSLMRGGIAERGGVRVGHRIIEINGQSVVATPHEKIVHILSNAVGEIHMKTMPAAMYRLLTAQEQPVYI

[10] = target: T5, Voltage-gated N-type calcium channel alpha-1B subunit/Amyloid beta A4 precursor protein-binding family A member 1; assay: disruptors of Mint-PDZ/N-type channel peptide interaction – biochemical, HTRF, set 2, SAR follow-up (AID 434980); format: functional
[11] = tested on: P388; assay: cells; format: functional; conditions: Mus musculus
[12] = tested on: P388/ADR; assay: cells; format: functional; conditions: Mus musculus
[13] = target: C-C chemokine receptor type 6 (Homo sapiens, UniProt P51684); assay: CCR6 receptor antagonists, dose response, cell-based, luminescent beta-arrestin readout (AID 504728); format: functional
C-C chemokine receptor type 6, sequence (P51684 whole entry): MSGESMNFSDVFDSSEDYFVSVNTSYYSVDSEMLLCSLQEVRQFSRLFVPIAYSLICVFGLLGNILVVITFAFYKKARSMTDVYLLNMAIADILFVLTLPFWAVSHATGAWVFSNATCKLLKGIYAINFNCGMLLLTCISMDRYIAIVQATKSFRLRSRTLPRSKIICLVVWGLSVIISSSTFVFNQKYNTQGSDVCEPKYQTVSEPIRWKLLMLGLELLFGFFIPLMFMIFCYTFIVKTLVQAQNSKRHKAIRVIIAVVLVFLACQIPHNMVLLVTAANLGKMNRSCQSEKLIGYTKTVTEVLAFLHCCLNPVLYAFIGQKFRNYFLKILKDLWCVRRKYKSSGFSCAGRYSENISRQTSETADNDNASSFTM

[14] = target: Beta-galactosidase (Escherichia coli, UniProt Q8VNN2); assay: beta-galactosidase enzyme inhibitors and activators, dose response, artefact control for CCR6 antagonist project, biochemical, E. coli enzyme, set 3 (AID 504712); format: functional
[15] = tested on: Vero; assay: cells; format: functional, cell-based; conditions: Chlorocebus sabaeus
[16] = tested on: Vero; assay: cells; format: functional; conditions: Chlorocebus sabaeus
[17] = tested on: SN12K1; assay: cells; format: functional; conditions: Homo sapiens
[18] = target: Kappa-type opioid receptor (Homo sapiens, UniProt P41145); assay: SAR analysis of small molecule agonists of the kappa opioid receptor via a luminescent beta-arrestin assay - Set 2. [Related pubchem assays (depositor defined):AID1777, AID1785, AID1786, AID1966, AID2133, AID2136, AID2284, AID449737]; format: functional
Kappa-type opioid receptor, sequence (P41145 whole entry): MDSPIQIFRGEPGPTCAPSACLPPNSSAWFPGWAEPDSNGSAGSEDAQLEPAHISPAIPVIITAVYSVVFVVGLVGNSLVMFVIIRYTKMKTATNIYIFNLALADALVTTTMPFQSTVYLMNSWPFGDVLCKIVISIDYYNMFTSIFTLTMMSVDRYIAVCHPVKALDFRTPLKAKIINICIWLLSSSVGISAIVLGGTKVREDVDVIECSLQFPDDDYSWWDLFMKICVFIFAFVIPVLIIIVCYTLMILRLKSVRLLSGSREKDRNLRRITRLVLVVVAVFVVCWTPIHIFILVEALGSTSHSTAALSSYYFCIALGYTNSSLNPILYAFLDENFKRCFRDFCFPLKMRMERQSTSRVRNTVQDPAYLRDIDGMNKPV

[19] = target: Cyclin-dependent kinase 5/CDK5 activator 1 (Homo sapiens, UniProt Q00535); assay: CDK5/p35 kinase inhibitors, dose response, biochemical, cherry-picked samples, set 2 (AID 504545)
Cyclin-dependent kinase 5/CDK5 activator 1, sequence (Q00535 whole entry): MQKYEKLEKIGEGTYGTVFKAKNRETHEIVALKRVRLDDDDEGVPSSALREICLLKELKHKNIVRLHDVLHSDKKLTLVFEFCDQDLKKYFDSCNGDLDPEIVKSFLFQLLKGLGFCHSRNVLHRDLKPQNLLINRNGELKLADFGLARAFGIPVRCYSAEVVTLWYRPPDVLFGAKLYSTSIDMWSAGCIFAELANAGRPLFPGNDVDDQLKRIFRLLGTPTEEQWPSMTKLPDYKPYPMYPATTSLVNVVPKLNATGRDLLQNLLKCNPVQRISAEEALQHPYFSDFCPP
Cyclin-dependent kinase 5/CDK5 activator 1, sequence (Q15078 whole entry, further chain): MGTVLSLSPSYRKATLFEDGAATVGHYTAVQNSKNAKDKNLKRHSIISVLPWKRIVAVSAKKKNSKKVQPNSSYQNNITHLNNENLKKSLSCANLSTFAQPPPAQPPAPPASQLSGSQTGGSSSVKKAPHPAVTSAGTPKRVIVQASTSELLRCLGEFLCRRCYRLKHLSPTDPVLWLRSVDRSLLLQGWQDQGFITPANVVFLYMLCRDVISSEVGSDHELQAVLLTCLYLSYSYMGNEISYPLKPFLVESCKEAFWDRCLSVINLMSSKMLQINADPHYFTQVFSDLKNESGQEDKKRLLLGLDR

CS(=O)(=O)Nc1nc2n(n1)C(c1ccccc1)C=C(c1ccc(Br)cc1)N2 (centres undefined)
AC50 [1]: 8.07 µM (active)
IC50 [2]: 45.3 µM (active)
EC50 [3]: 6.39 µM (active)
EC50 [4]: > 300 µM (not active)

O=c1oc2ccccc2nc1/C=C(\O)c1ccc(Br)cc1
IC50 [5]: 5 µM (active)
AC50 [6]: 56.9 µM (active)

Cn1c(N)c(C(=O)COC(=O)c2ccc(Cl)c(S(=O)(=O)N3CCCC3)c2)c(=O)n(C)c1=O
AC50 [7]: 68.1 µM (active)

CCN(CC)c1ccc(NC(=O)Cn2c(C(C)NC(=O)c3ccc(C)cc3)nc3ccccc32)cc1 (centres undefined)
EC50 [8]: > 100 µM (not active)

CC(=O)Oc1cccc(N2C(=O)C3C(C2=O)C2(C)C=CC3(C)O2)c1 (centres undefined)
IC50 [9]: 12 µM (active) and 18.3 µM (active)
IC50 [10]: 9.86 µM (active) and 9.63 µM (active)

CCCC/C=C1/CCC(CN(C)C)C1=O (centres undefined)
GI50 [11]: 0.164 µM (active)
GI50 [12]: 0.155 µM (active)
IC50 [13]: 27.1 µM (inactive)
IC50 [14]: > 66.6 µM (inactive)
IC50 [15]: 21.8 µM (active)
CC50 [16]: > 25 µM (active)
GI50 [17]: 0.776 µM (active)

O=C(CN(Cc1cccs1)C(=O)c1ccccn1)NC1CCCCC1
EC50 [18]: > 20 µM (inactive)

Fc1ccccc1/C=N/Nc1[nH]cnc2ncnc1-2
AC50 [19]: 17.4 µM (active)
